Each block holds one molecule with its values, some of them ahead of it.
Columns and labels:
[1] = biological target: T1, Peroxisome proliferator-activated receptor alpha (Homo sapiens, UniProt Q07869); experiment: Binding affinity to PPARalpha (unknown origin)
T1 sequence (Q07869 whole entry): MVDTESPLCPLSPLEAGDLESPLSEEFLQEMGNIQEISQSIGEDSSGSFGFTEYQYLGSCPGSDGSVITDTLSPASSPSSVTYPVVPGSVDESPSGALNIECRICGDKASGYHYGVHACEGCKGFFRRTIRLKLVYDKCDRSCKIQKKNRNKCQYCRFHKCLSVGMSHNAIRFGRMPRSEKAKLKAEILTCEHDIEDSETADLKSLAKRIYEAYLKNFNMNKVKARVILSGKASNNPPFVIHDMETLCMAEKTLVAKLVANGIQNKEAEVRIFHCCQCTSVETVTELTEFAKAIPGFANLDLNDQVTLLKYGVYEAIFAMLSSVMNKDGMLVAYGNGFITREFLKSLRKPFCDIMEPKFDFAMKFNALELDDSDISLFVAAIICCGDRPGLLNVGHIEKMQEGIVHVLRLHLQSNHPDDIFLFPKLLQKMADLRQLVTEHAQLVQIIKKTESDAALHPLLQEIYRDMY

Hepatocyte = experiment: Anti-fibrosis effect in CCl4 induced lipid peroxidation in rat hepatocytes by measuring MDA formation incubated for 1 hr by TBARS method; format: functional, cell-based
[2] = biological target: T2, Peroxisome proliferator-activated receptor alpha (Mus musculus, UniProt P23204); experiment: Agonist activity at mouse PPARalpha
T2 sequence (P23204 whole entry): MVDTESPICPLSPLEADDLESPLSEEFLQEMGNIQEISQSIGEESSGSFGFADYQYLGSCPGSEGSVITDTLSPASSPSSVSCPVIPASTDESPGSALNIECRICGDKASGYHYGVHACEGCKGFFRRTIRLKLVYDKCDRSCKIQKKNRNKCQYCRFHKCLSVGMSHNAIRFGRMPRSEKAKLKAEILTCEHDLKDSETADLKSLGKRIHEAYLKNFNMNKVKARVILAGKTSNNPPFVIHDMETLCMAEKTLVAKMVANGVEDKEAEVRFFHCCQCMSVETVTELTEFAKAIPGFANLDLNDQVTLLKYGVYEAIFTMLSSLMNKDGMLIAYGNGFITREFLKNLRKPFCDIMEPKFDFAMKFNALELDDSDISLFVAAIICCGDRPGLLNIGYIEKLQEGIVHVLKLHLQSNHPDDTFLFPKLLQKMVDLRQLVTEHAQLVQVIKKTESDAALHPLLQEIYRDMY

[3] = biological target: C-C chemokine receptor type 5 (Homo sapiens, UniProt P51681); experiment: Antagonist at CCR5 (unknown origin) assessed as inhibitory constant
[4] = tested on: Human immunodeficiency virus 1; experiment: Antiviral activity against M tropic HIV-1 Ba-L infected in human HeLa-MAGI-CCR5 cells assessed as inhibition of viral replication; format: functional, organism-based; details: Human immunodeficiency virus 1, Ba-L
[5] = biological target: T1, Peroxisome proliferator-activated receptor alpha; experiment: Agonist activity at PPARalpha (unknown origin)
[6] = biological target: T3, Peroxisome proliferator-activated receptor delta (Homo sapiens, UniProt Q03181); experiment: Agonist activity at PPARdelta (unknown origin)
T3 sequence (Q03181 whole entry): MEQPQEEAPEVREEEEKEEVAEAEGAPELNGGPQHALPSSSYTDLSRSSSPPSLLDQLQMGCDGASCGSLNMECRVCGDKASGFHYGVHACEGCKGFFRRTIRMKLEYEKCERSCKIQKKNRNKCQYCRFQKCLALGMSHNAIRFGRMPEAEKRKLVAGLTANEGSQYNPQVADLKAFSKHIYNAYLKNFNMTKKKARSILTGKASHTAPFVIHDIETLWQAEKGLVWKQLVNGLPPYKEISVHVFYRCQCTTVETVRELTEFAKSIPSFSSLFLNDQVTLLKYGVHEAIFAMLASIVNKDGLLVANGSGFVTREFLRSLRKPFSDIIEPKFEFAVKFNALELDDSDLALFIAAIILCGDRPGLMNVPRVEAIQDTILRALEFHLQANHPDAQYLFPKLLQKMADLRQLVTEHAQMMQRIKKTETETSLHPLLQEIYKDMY

[7] = biological target: T1, Peroxisome proliferator-activated receptor alpha; experiment: Agonist activity at PPARalpha in human HepG2 cells; format: cell-based
[8] = biological target: T1, Peroxisome proliferator-activated receptor alpha; experiment: Agonist activity at PPARalpha (unknown origin) assessed as transcriptional activation
[9] = biological target: T4, Peroxisome proliferator-activated receptor gamma (Homo sapiens, UniProt P37231); experiment: Agonist activity at PPARgamma (unknown origin) assessed as transcriptional activation
T4 sequence (P37231 whole entry): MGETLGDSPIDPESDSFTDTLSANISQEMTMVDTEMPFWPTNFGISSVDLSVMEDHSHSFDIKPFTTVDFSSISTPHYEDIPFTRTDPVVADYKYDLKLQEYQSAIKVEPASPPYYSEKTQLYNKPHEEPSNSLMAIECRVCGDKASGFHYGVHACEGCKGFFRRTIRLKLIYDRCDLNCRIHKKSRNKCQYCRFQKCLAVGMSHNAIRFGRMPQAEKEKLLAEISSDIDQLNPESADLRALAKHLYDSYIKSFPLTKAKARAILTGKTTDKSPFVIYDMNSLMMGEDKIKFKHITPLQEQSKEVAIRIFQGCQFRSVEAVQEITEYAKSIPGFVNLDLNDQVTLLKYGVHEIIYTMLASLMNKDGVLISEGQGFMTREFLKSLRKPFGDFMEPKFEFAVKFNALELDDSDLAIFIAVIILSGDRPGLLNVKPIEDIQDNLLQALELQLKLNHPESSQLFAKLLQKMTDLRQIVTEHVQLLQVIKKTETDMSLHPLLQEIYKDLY

Chain of C-C chemokine receptor type 5 (P51681 whole entry): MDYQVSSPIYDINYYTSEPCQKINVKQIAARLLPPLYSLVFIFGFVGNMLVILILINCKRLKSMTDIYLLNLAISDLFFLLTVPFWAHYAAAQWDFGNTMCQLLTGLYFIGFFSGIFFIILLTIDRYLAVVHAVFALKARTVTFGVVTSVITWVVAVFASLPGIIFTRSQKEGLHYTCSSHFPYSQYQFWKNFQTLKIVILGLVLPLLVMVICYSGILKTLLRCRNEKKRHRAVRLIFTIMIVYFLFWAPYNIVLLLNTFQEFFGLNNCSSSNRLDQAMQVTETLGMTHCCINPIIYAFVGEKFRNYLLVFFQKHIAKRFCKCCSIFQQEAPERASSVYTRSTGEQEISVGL

Compound: O=C(/C=C/c1ccc(O)c2c1[C@@H](C(=O)O[C@H](Cc1ccc(O)c(O)c1)C(=O)O)[C@H](c1ccc(O)c(O)c1)O2)O[C@H](Cc1ccc(O)c(O)c1)C(=O)O
IC50 (Hepatocyte): 2750 µM

Compound: CC(C)(Oc1ccc(CCNC(=O)c2ccc(Cl)cc2)cc1)C(=O)O [BEZAFIBRATE]
EC50 [2]: 50 µM

Compound: Cc1ccc(-c2ccc3c(c2)C=C(C(=O)Nc2ccc(C[N+](C)(C)C4CCOCC4)cc2)CCC3)cc1
Ki [3]: 0.0011 µM | EC50 [4]: 0.0012 µM | EC90 [4]: 0.0057 µM

Compound: CCCc1c(OCCCOc2ccc(OCC(=O)O)cc2)ccc(C(C)=O)c1O
EC50 [6]: 0.05 µM

Compound: CCOC(=O)C(C)(C)Oc1ccc(Cl)cc1 [CLOFIBRATE]
EC50 [2]: 55 µM

Compound: CSc1ccc(C(=O)/C=C/c2cc(C)c(OC(C)(C)C(=O)O)c(C)c2)cc1 [ELAFIBRANOR]
EC50 [8]: 0.045 µM | EC50 [9]: 0.175 µM

More lines, now with the values ahead:

EC50 [1]: 20 µM
Compound: COc1ccc(Oc2cc(N(C)CCOc3ccc(CC4SC(=O)NC4=O)cc3)ncn2)cc1 (configuration not stated) [LOBEGLITAZONE]

EC50 [5]: 15.2 µM
Compound: Cc1ccc(C)c(OCCCC(C)(C)C(=O)O)c1 [GEMFIBROZIL]

EC50 [7]: 0.65 pM
Compound: CCO[C@@H](Cc1ccc(OCCn2c(C)ccc2-c2ccc(SC)cc2)cc1)C(=O)O [SAROGLITAZAR]

From ChEMBL document CHEMBL5260846, “Emerging targets and potential therapeutic agents in non-alcoholic fatty liver disease treatment” (Eur J Med Chem, 2020)
